Measured values as given in ChEMBL document CHEMBL4350951, “Emerging and Re-Emerging Warheads for Targeted Covalent Inhibitors: Applications in Medicinal Chemistry and Chemical Biology” (J Med Chem, 2019).

Legend:
[1] = Cysteine reactivity assessed as cysteine oxidation; format: physicochemical
[2] = target: T1, Phosphatidylinositol 4,5-bisphosphate 3-kinase catalytic subunit delta isoform (Homo sapiens) (UniProt O00329); assay: (§1) Inhibition of PI3Kdelta (unknown origin)
T1 sequence (whole entry): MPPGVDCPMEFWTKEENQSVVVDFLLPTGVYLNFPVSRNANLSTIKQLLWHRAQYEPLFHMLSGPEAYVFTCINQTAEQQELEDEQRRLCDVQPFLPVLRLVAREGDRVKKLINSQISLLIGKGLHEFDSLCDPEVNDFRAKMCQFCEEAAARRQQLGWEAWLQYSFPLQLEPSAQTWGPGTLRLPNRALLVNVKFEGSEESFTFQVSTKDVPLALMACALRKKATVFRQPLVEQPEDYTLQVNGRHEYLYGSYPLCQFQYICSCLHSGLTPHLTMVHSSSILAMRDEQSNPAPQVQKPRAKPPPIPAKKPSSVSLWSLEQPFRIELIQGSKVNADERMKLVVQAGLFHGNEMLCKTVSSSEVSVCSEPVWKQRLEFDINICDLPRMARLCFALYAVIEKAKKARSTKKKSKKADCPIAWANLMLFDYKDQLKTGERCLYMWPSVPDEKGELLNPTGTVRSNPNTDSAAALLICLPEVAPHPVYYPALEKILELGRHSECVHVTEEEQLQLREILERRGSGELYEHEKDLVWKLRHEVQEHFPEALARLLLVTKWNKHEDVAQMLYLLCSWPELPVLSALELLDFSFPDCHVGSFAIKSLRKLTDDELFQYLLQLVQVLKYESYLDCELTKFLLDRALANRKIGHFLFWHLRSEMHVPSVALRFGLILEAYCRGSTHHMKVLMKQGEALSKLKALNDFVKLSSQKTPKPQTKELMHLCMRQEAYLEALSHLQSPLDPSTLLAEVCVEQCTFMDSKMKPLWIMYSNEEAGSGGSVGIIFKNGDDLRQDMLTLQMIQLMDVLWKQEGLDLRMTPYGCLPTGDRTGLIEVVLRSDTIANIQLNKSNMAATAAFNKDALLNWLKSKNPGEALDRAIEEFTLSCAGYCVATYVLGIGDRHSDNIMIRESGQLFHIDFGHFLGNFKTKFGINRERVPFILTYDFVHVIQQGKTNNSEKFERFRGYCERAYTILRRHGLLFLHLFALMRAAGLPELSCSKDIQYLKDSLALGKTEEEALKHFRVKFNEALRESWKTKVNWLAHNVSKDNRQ

[3] = target: T2, Phosphatidylinositol 4,5-bisphosphate 3-kinase catalytic subunit delta isoform (Homo sapiens, UniProt O00329); assay: as §1
T2 sequence (O00329 whole entry): T1 sequence (whole entry)

[4] = Half life of the compound at pH 7.5; format: physicochemical
[5] = system: Mycobacterium tuberculosis; assay: Inhibition of Mycobacterium tuberculosis ICL1 assessed as ratio of Kinact to Ki
[6] = Dissociation constant, pKa of the compound; format: physicochemical
[7] = Half life in mouse at 20 mg/kg, ip; format: ADME, organism-based; details: in vivo
[8] = target: T3, Induced myeloid leukemia cell differentiation protein Mcl-1 (Homo sapiens, UniProt Q07820); assay: Binding kinetics to MCl-1 (unknown origin) assessed as dissociation rate constant for state two
T3 sequence (Q07820 whole entry): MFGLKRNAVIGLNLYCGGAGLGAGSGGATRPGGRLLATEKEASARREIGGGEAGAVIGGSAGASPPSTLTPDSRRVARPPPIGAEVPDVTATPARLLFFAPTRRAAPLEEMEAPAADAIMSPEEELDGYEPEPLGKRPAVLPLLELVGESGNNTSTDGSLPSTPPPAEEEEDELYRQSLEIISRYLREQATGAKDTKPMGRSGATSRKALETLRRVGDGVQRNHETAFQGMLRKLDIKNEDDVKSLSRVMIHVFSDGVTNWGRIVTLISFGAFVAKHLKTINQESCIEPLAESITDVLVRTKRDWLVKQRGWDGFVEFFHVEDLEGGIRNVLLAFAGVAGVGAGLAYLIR

[9] = target: T3, Induced myeloid leukemia cell differentiation protein Mcl-1; assay: Binding kinetics to MCl-1 (unknown origin) assessed as dissociation rate constant for state one
[10] = cells; details: Homo sapiens, MOLP-8
Description: Cytotoxicity against human MOLP8 cells

[11] = target: T4, m7GpppX diphosphatase (Homo sapiens, UniProt Q96C86); assay: Inhibition of DcpS (unknown origin) using m7GpppA as substrate by ELISA
T4 sequence (Q96C86 whole entry): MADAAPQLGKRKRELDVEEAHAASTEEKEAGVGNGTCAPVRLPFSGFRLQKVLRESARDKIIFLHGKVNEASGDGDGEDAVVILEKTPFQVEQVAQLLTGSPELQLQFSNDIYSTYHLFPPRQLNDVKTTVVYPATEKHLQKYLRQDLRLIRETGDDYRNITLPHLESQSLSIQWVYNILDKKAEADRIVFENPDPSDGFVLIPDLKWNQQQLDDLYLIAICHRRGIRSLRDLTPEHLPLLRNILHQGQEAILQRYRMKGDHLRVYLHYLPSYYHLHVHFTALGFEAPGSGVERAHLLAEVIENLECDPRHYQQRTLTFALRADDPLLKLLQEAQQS

[12] = target: ALK tyrosine kinase receptor (Homo sapiens, UniProt Q9UM73)
Chain of ALK tyrosine kinase receptor (Q9UM73 whole entry): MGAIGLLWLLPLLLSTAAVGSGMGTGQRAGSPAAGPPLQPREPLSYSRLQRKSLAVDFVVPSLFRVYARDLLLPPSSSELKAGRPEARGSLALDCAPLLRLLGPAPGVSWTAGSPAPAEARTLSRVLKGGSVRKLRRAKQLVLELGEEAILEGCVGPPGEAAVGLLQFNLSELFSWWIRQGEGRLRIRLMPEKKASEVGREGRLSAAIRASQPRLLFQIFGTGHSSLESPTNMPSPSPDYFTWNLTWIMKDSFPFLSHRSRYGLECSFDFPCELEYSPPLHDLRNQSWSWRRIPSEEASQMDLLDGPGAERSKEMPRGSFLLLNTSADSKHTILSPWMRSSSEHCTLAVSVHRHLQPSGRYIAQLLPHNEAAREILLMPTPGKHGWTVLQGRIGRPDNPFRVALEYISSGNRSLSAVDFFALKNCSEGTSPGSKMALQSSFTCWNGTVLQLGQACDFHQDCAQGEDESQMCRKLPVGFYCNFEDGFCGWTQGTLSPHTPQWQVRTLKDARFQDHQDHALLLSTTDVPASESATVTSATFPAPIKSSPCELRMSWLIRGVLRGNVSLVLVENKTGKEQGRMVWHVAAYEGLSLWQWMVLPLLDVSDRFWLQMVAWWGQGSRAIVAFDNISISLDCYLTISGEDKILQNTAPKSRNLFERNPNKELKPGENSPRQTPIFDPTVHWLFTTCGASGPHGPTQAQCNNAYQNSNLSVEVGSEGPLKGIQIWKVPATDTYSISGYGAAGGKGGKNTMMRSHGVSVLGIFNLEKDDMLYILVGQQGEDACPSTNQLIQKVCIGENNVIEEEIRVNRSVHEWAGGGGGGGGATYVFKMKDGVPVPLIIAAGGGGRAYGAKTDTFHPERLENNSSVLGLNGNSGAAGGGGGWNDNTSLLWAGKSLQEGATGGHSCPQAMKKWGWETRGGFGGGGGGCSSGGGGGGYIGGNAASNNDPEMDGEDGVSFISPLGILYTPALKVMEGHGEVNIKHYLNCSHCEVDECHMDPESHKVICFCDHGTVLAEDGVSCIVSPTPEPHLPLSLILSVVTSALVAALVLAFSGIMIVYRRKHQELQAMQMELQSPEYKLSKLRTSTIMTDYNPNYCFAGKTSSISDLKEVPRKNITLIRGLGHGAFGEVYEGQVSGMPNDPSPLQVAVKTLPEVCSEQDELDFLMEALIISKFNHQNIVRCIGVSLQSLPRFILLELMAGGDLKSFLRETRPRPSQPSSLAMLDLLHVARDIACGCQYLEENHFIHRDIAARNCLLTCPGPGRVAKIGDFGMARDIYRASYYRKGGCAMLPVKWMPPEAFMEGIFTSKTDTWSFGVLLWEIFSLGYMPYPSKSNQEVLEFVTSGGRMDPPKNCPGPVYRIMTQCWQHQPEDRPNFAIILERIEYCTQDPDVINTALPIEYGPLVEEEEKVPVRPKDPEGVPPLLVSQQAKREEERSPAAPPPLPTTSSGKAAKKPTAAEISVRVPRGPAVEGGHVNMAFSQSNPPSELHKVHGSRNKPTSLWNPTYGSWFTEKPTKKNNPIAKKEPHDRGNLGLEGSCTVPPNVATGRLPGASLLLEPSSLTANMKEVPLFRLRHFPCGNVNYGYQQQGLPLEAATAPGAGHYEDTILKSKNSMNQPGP
Description: Inhibition of ALK (unknown origin) by TR-FRET assay

[13] = target: Glutathione S-transferase P (Homo sapiens) (UniProt P09211); assay: Inhibition of GSTP1 (unknown origin) assessed as ratio of Kinact to Ki by MS/MS analysis
Chain of Glutathione S-transferase P (Homo sapiens) (P09211 2-210 limits assumed): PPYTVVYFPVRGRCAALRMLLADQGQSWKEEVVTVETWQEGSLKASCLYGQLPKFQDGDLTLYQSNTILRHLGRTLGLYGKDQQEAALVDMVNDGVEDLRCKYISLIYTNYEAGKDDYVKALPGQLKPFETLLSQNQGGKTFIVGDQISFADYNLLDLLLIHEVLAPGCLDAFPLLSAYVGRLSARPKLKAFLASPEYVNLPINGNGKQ

[14] = target: SRSF protein kinase 1 (Homo sapiens, UniProt Q96SB4); assay: Inhibition of SRPK1 (unknown origin) by TR-FRET assay
Chain of SRSF protein kinase 1 (Q96SB4 whole entry): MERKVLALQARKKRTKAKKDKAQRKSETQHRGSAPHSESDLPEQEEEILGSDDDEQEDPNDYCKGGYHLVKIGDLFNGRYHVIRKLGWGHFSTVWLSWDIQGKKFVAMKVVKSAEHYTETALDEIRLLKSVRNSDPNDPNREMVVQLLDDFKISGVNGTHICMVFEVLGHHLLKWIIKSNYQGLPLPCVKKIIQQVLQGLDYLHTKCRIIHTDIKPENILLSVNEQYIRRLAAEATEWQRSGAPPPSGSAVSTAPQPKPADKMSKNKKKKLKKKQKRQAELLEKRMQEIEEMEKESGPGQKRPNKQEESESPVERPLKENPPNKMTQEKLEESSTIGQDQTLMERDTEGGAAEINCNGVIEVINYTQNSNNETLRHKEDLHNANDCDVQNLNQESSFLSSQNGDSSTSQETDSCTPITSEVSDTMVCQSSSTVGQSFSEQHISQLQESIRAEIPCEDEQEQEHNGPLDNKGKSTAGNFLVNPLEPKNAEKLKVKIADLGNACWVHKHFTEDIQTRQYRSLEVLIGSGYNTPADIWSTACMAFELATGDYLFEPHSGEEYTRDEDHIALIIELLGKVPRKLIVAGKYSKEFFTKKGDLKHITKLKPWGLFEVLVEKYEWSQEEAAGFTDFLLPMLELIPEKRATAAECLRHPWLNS

[15] = target: Serine/threonine-protein kinase PLK1 (Homo sapiens, UniProt P53350); assay: Inhibition of PLK1 (unknown origin)
Chain of Serine/threonine-protein kinase PLK1 (P53350 whole entry): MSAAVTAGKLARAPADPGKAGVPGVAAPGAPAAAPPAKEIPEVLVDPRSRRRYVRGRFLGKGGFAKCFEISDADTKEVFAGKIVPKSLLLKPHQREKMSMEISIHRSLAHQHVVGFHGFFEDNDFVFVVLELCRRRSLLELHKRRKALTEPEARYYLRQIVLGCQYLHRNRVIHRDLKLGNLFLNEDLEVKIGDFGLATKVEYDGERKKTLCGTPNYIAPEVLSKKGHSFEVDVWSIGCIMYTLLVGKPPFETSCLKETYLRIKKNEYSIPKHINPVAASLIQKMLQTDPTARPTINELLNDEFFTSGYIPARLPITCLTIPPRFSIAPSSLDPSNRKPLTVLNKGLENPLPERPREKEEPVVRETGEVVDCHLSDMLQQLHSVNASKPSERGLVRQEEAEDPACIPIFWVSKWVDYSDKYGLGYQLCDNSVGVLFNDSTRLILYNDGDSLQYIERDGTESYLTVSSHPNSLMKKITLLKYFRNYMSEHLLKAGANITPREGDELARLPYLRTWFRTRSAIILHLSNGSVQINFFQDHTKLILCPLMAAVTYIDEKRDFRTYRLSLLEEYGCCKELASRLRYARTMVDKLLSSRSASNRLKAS

[16] = Inhibition of PLK1 C675 mutant (unknown origin); parameters: species or system Homo sapiens
[17] = Half life of the compound in aqueous buffer at pH 7.2; format: physicochemical
[18] = target: T5, Peptidyl-prolyl cis-trans isomerase FKBP1A (Homo sapiens, UniProt P62942); assay: Inhibition of recombinant human FKBP12 assessed as ratio of Kinact to Ki after 24 hrs by MS/MS analysis
T5 sequence (P62942 whole entry): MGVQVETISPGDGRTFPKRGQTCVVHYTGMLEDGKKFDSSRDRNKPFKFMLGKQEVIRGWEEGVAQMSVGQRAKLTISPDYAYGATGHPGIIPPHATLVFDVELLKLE

[19] = target: T5, Peptidyl-prolyl cis-trans isomerase FKBP1A; assay: Inhibition of recombinant human FKBP12 after 24 hrs by MS/MS analysis
[20] = system: Hsp90 (human); assay: Inhibition of human Hsp90 by MS/MS analysis
[21] = system: Hsp90 (human); assay: Inhibition of human Hsp90 assessed as ratio of Kinact to Ki by MS/MS analysis
[22] = Half life in plasma (unknown origin); format: ADME, cell-free

## CC(=O)CS(=O)(=O)c1ccccc1
[1]
  K: 8.7 min⁻¹

## COc1ncc(-c2cc(-c3ncc(CN4CCN(C(C)C)CC4)o3)c3cn[nH]c3c2)cc1C(=O)Oc1ccc([N+](=O)[O-])cc1
[2]
  Kinact: 0.0055 s⁻¹
[3]
  IC50: 0.617 nM
  Ki: 40 nM

## O=C1CCC(=O)C1
[1]
  K: 0.02 min⁻¹

## O=C1CCCC(=O)C1
[1]
  K: 0.4 min⁻¹

## C#CCCCN1CC(=O)CC1=O
[1]
  K: 330 M⁻¹ s⁻¹

## O=C1CC(=O)c2ccccc21
[1]
  K: 22.9 min⁻¹

## CC(=O)CC(C)=O
[1]
  K: 3.8 min⁻¹

## O=S(=O)(F)c1ccccc1
[4]
  half-life: 0.0833 to 0.25 h

## O=C(O)CC=[N+]([O-])[O-]
[5]
  Ratio: 2.6 ×10⁴ /M/s
[6]
  pKa: 9

## C[C@@H]1CCN(C(=O)CC#N)C[C@@H]1N(C)c1ncnc2[nH]ccc12 [TOFACITINIB]
[1]
  K: 0.4 min⁻¹

## C#Cc1cccc(Oc2ccc(-c3nn([C@@H]4CCCN(C(=O)/C=C/C(=O)OC(C)C)C4)c4ncnc(N)c34)cc2)c1
[7]
  half-life: < 0.0333 h

## C#Cc1cccc(Oc2ccc(-c3nn([C@@H]4CCCN(C(=O)C=C)C4)c4ncnc(N)c34)cc2)c1
[7]
  half-life: 2.8 h

## N#CCS(=O)(=O)c1ccccc1
[1]
  K: 78 min⁻¹

## CS(=O)(=O)CC#N
[1]
  K: 28.6 min⁻¹

## Cc1c(-c2cccc3c(CCCOc4cccc5ccccc45)c(C(=O)O)n(C)c23)c(COc2ccc(B(O)O)c(C=O)c2)nn1C
[8]
  koff: 0.01 s⁻¹
[9]
  koff: 0.13 s⁻¹
[10]
  EC50: 75 nM

## C#CCCCN1CS(=O)(=O)CC1=O
[1]
  K: 20 M⁻¹ s⁻¹

## O=[N+]([O-])CS(=O)(=O)c1ccccc1
[1]
  K: 7.8 min⁻¹

## Nc1nc(N)c2c(OCc3ccc(S(=O)(=O)F)cc3)cccc2n1
[11]
  IC50: < 0.02 nM

## C#Cc1cccc(Oc2ccc(-c3nn([C@@H]4CCCN(C(=O)/C=C/C(=O)OC)C4)c4ncnc(N)c34)cc2)c1
[7]
  half-life: < 0.0333 h

## COc1ncc(-c2cc(-c3ncc(CN4CCN(C(C)C)CC4)o3)c3cn[nH]c3c2)cc1C(=O)Oc1ccc(C)cc1C
[3]
  Ki: 7800 nM

## O=C1CS(=O)(=O)N(Cc2ccccc2)c2ccccc21
[1]
  K: 190.5 min⁻¹

## CCc1cc2c(cc1-c1cccc(S(=O)(=O)F)c1)C(C)(C)c1[nH]c3cc(C#N)ccc3c1C2=O
[12]
  IC50: 11 nM

## C#CCCCN(c1nc(Cl)nc(Cl)n1)[C@@H](CC(C)C)C(=O)OC
[13]
  Ratio: 3.12 M⁻¹ s⁻¹

## CCc1cc2c(cc1N1CCC(N3CCOCC3)CC1)C(C)(C)c1[nH]c3cc(C#N)ccc3c1C2=O [ALECTINIB]
[14]
  IC50: 11 nM

## C#Cc1cccc(Oc2ccc(-c3nn([C@@H]4CCCN(C(=O)/C=C/C(=O)O)C4)c4ncnc(N)c34)cc2)c1
[7]
  half-life: 2.15 h

## NC(=O)c1sc2c([n+]1[O-])C(SC[C@H](N)C(=O)O)C(C(F)(F)F)=CC2[N+](=O)[O-] (stereo partly drawn)
[15]
  IC50: 2500 nM
[16]
  IC50: > 100000 nM

## C#CCCCN1c2ccccc2C(=O)CS1(=O)=O
[1]
  K: 1700 M⁻¹ s⁻¹

## C#CCCCN1CCC(=O)CC1=O
[1]
  K: 1155 M⁻¹ s⁻¹

## NC(=O)c1sc2c([n+]1[O-])C(SC[C@H](N)C(=O)O)C(SC(F)(F)F)=CC2[N+](=O)[O-] (stereo partly drawn)
[15]
  IC50: 400 nM

## CCC(C)(C)C(=O)C(=O)N1CCCC[C@H]1C(=O)O[C@H](CCc1ccc(OC)c(OC)c1)c1cccc(OCC(=O)NCCCCCNC(=O)c2ccc(S(=O)(=O)N(CC#N)C(=O)CCCC[C@@H]3SC[C@@H]4NC(=O)N[C@@H]43)cc2)c1
[17]
  half-life: 43 h
[18]
  Ratio: 2.9 ×10⁴ /M/s
[19]
  Ki: 210 nM
  Kinact: 6.1 ×10⁻³ /s

## C#CCCCC1CCC(=O)CC1=O (stereo not drawn)
[1]
  K: 10 M⁻¹ s⁻¹

## O=C1CCN(Cc2ccccc2)C(=O)C1
[1]
  K: 86.4 min⁻¹

## O=C1CS(=O)(=O)Cc2ccccc21
[1]
  K: 54.9 min⁻¹

## Cc1c(-c2cccc3c(CCCOc4cccc5ccccc45)c(C(=O)O)[nH]c23)c(COc2ccc(B(O)O)c(C=O)c2)nn1C
[8]
  koff: 0.018 s⁻¹
[9]
  koff: 0.14 s⁻¹

## N#CCN(C(=O)CCCC(=O)NCCCn1c(Sc2cc3c(cc2I)OCO3)nc2c(N)ncnc21)S(=O)(=O)c1ccccc1
[20]
  Ki: 62 nM
[21]
  Ratio: 2.9 ×10⁴ /M/s

## O=C1CC(=O)NC(=O)N1 [BARBITURIC ACID]
[1]
  K: 0.2 min⁻¹

## CN(C)c1ccc(S(=O)(=O)F)cc1
[22]
  half-life: 25.1 h
